These results are taken from US20260226025A1, “PHARMACEUTICALLY ACCEPTABLE SALT AND CRYSTAL FORM OF TRIAZOLE COMPOUND, AND PREPARATION METHOD THEREFOR” (JIANGSU HENGRUI PHARMACEUTICALS CO., LTD., priority 2023, published 2026).

In this experiment the target is T1, hLPAR1 (human lysophosphatidic acid receptor 1) (Homo sapiens, UniProt Q92633).
T1 construct: host or cells: CHO-K1 (CHO-K1/LPA1R, cultured under hygromycin B selection)
Description: FLIPR antagonist property test: LPA-induced intracellular calcium elevation in CHO-K1/LPA1R cells. It counts as cell-based. The following applies: hLPAR1 expressed in CHO-K1 cells, LPA at EC80, read-out: LPAR1 IC50. The protocol:
The antagonist properties of a compound of the present disclosure were assessed using the FLIPR (fluorometric imaging plate reader) method. The compound is an inhibitor of intracellular calcium elevation induced by activation of hLPAR1 (human lysophosphatidic acid receptor 1) expressed in CHO-K1 cells (Chinese hamster ovary K1 cells, HDB). • 1. Experimental reagents and instrument consumables
• 2. Reagent preparation • 2.1. Reaction buffer: HBSS+20 mM HEPES+0.1% fatty acid-free BSA+0.001% F-127 • 2.2. 50× Red dye: (a red dye for blocking background signals in cells) prepared by: weighing out 4 g of tartrazine and 10.2 g of acid red and dissolving them in 100 mL of H2O. • 2.3. Fluo-8 staining mixture: 4 mL of reaction buffer, 32 μL of fluo-8, 320 μL of 50× Red dye, and 40 μL of probenecid. • 3. Compound preparation • 3.1. […] When the cells became round, the digestion was stopped with culture medium F-12 (10% FBS), and the cells were counted. […] An FLIPR was correspondingly programmed, the 6×LPA gradient solutions were added, and readings were taken. […] A reaction curve was obtained from the numerical values of LPA, and the concentration of LPA at EC80 was calculated. […] An FLIPR was correspondingly programmed, the 6×LPA solution was added, and readings were taken. […] Finally, the output fluorescence counts were analyzed, and the IC50 of the compound was calculated. • 5. […]

T1 sequence (Q92633 whole entry): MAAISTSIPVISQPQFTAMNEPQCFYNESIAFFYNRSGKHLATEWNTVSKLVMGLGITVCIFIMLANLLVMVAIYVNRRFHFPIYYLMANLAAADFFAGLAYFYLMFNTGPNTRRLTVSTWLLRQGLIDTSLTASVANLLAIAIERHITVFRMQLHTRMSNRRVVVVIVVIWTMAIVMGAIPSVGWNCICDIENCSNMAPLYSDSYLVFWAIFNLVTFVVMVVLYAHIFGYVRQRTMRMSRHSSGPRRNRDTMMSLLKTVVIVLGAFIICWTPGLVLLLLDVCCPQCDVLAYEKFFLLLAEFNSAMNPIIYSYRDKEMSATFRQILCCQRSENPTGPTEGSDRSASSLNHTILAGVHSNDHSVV

In the case of `COCc1ccnc(OCc2c(-c3ccc(O[C@H]4C[C@@H]5CC[C@H](C(=O)O)[C@@H]5C4)c(C)n3)nnn2C)n1` [Compound 1-P1, (1S,3aS,5S,6aR)-5-((6-(5-(((4-(methoxymethyl)pyrimidin-2-yl)oxy)methyl)-1-methyl-1H-1,2,3-triazol-4-yl)-2-methylpyridin-3-yl)oxy) octahydropentalene-1-carboxylic acid], the IC50 worked out at 8.7 nM.
